The source of these data is paper PMC4465654, “Multi-Leu PACE4 Inhibitor Retention within Cells Is PACE4 Dependent and a Prerequisite for Antiproliferative Activity” (BioMed Research International, 2015).

The test system of one assay is HepG2 cells. In words: MTT cell proliferation assay, HepG2. In kind it is cell-based. Particulars: 72 h, serum-free medium, 1 μM to 300 μM, means of at least 3 independent experiments (Figure 5a). The method, then:
(§1) To evaluate peptide growth inhibitory properties, 3000 (Huh7) and 4000 (HepG2) cells were seeded in triplicate in 96-well plates. After 24 h, media was changed for serum-free medium and increasing concentrations of peptide were added. After 72 h, 25 μL of 3-(4,5-Dimethylthiazol-2-yl)-2,5-diphenyltetrazolium bromide (MTT) reagent (5 mg/mL; Sigma Aldrich) was added to each well and, after 4-hour incubation, medium was carefully removed and cells were lysed in acidic isopropanol (24 : 1 HCl 1 N). Absorbance at 550 nm and 650 nm (reference wavelength) was measured using a plate spectrophotometer.
(§2) Figure 5 Antiproliferative properties of ML peptide on the tested cell lines. […] Data are means ± SEM of at least 3 independent experiments.

The next assay addresses recombinant PACE4. The conditions noted are these: in vitro inhibition, read-out: K i against recombinant PACE4, cited from earlier work.
A further assay relates to HT1080 cells. Nature of the assay: MTT cell proliferation assay, HT1080. The format is cell-based. The conditions noted are these: 72 h, serum-free medium, 1 μM to 300 μM, means of at least 3 independent experiments (Figure 5c). For orientation: Formazan colour is commonly taken as a measure of viable cells.
In the next assay the test system is Huh7 cells. In words: MTT cell proliferation assay, Huh7. The format is cell-based. Particulars: 72 h, serum-free medium, 1 μM to 300 μM, means of at least 3 independent experiments (Figure 5b). As to the method: as §1, §2

“Also recorded” adds a separate entry of the source. Like-named read-outs stand apart in the source and are kept apart here. Where a SMILES comes first, the peptide text is derived from it. Bounds are passed on as bounds.

Take `CC(=O)N[C@@H](CCCNC(=N)N)C(=O)N[C@@H](CC(C)C)C(=O)N[C@@H](CCCNC(=N)N)C(=O)N[C@@H](CC(C)C)C(=O)N[C@@H](CC(C)C)C(=O)N[C@@H](CCCCN)C(=O)N[C@H](C(=O)N[C@@H](CC(C)C)C(N)=O)C(C)C` [scramble version of the ML peptide, Ac-RLRLLKVL-NH2, reference compound] (Ac-RLRLLKVL-NH2): the “inhibition of cell proliferation relative to untreated cells” value with HepG2 cells, in the assay with HT1080 cells and in the assay with Huh7 cells was “inactive” throughout. Moreover, the Ki on recombinant PACE4 was over 10000 nM.
Regarding `CC(=O)N[C@@H](CC(C)C)C(=O)N[C@@H](CC(C)C)C(=O)N[C@@H](CC(C)C)C(=O)N[C@@H](CC(C)C)C(=O)N[C@@H](CCCNC(=N)N)C(=O)N[C@H](C(=O)N[C@@H](CCCCN)C(=O)N[C@@H](CCCNC(=N)N)C(N)=O)C(C)C` [ML peptide, Ac-LLLLRVKR-NH2] (Ac-LLLLRVKR-NH2), the “inhibition of cell proliferation relative to untreated cells” value with HepG2 cells was “dose-response inhibition of cell proliferation”; with HT1080 cells it was “dose-response inhibition of cell proliferation; also recorded: lowest response”; in the assay with Huh7 cells it was “dose-response inhibition of cell proliferation”. Besides, the Ki at recombinant PACE4 (independently of the addition of the NOTA moiety) is 20 nM.
